A word on the IC50: it is the concentration that gives 50% inhibition.

Drawing on ChEMBL document CHEMBL1152676, “Combretastatin-like chalcones as inhibitors of microtubule polymerization. Part 1: synthesis and biological evaluation of antivascular activity” (Bioorg Med Chem, 2009), this text covers Activity and IC50 for 29 compounds.

The structures appear in SMILES notation. Calls of active or inactive are those of the source. No cut-off for these calls is given here.

Assay [1] deals with K562. Nature of the assay: Cell cycle arrest in human K562 cells assessed as accumulation at G0/G1 phase at 20 nM after 24 hrs by propidium iodide staining-based flow cytometry. Format: functional. On the technique in general: Flow cytometry measures light scatter and fluorescence of single cells or particles in a stream.
Assay [2] deals with K562. As to the kind of experiment: Cell cycle arrest in human K562 cells assessed as accumulation at S phase at 20 nM after 24 hrs by propidium iodide staining-based flow cytometry. The class given is functional.
The test system of another assay is HUVEC. As to the kind of experiment: Antivascular activity in HUVEC cells assessed as change in cell shape at 1 uM after 1 hr by fluorescent-labeled high molecular weight F-dextran permeability assay. The class given is functional, cell-based. The conditions noted are these: Homo sapiens.
Assay [3] can be described thus: Inhibition of tubulin polymerization assessed as appearance of shorter and ring shaped tubulin by electron microscopy.
A short description of assay [4]: Inhibition of tubulin assembly by Woods method.
Another assay deals with Vero. As to the kind of experiment: Binding affinity to tubulin in african green monkey Vero cells assessed as aberration of microtubule arrangement at 10 uM after 40 mins by immunohistochemistry. The conditions noted are these: Chlorocebus sabaeus. Format: cell-based.
Assay [5] concerns K562. As to the kind of experiment: Cell cycle arrest in human K562 cells assessed as accumulation at G2/M phase at 20 nM after 24 hrs by propidium iodide staining-based flow cytometry. The class given is functional.
Assay [6] is described as follows: Displacement of [3H]colchicine from tubulin assessed as bound colchicine at […] incubated in dark for 2 hrs by scintillation spectroscopy. For orientation: In a radioligand displacement assay an active substance lowers the binding of a labelled ligand.
The test system of assay [7] is K562. As to the kind of experiment: Antiproliferative activity against human K562 cells after 5 days by MTT assay. Format: functional, cell-based.
The nature of assay [8]: Inhibition of tubulin polymerization assessed as appearance of twisted and shorter tubulin by electron microscopy.

Turning to `COc1ccc(/C=C(\C)C(=O)c2cc(OC)c(OC)c(OC)c2)cc1O`, the Activity in the assay with K562 [1] amounted to 10%; in the assay with K562 [2], 7%; in the assay with K562 [5], 83%; in assay [6], 8%. Also, the result (in the assay on HUVEC; in assay [3]; with Vero) was Active. This compound also came in with an IC50 in [4] of 460 nM.
As for `CO/C(=C\c1cc(F)c(OC)c(F)c1)C(=O)c1cc(OC)c(OC)c(OC)c1`, the Activity in the assay with K562 [1] turned out to be 30%; in the assay with K562 [2], 15%; with K562 [5], 55%; in assay [6] it was 41%. Besides, the outcome in the assay with HUVEC was Active. Moreover, the IC50 in assay [4] is 1700 nM; in the assay on K562 [7] (Homo sapiens, K562, 120 h) it was 360 nM.
Turning to `COc1ccc(/C=C/C(=O)c2cc(OC)c(OC)c(OC)c2)cc1OC`, the Activity in the assay with K562 [1] stood at 31%; in the assay on K562 [2] it was 25%; in the assay with K562 [5] it was 44%; in assay [6], 62%. The IC50 in assay [4] is greater than 25000 nM; in the assay with K562 [7] (Homo sapiens, K562, 120 h), 300 nM.
Take `COc1cc(C(=O)/C=C/c2ccc3c(c2)OCCO3)cc(OC)c1OC`: the Activity worked out at 27% in the assay with K562 [1], 23% with K562 [2], 50% in the assay on K562 [5] and 10% in assay [6]. For the same compound, 13000 nM corresponded to half-maximal inhibition in [4] (IC50). The outcome in the assay with Vero was Active.
On to `COc1ccc(C(=O)/C=C/c2ccc(OC)c(OP(=O)(O)O)c2)cc1`, for which the outcome in the assay with HUVEC was Active. For the same compound, in assay [6], the Activity was 83%.
Consider `COc1ccc(/C=C(\C)C(O)c2cc(OC)c(OC)c(OC)c2)cc1O` (stereo not given), for which the Activity in the assay on K562 [1] stood at 44%; in the assay on K562 [2] it was 33%; in the assay with K562 [5], 24%. Besides, the IC50 in [4] was greater than 10000 nM; in the assay with K562 [7] (Homo sapiens, K562, 120 h) it was 90 nM.
Take `COc1ccc(OC)c(C(=O)/C(C)=C/c2ccc(N(C)C)cc2)c1`: the Activity was 10% with K562 [1], 8% in the assay with K562 [2], 82% with K562 [5] and 2% in assay [6]. Besides, the IC50 in assay [4] came out at 10000 nM; in the assay on K562 [7] (Homo sapiens, K562, 120 h), 12 nM. Further, the result in the assay on Vero was Active.
Take `COc1cc(OC)c(/C=C/C(=O)c2cc(OC)c(OC)c(OC)c2)c(OC)c1`: the Activity in the assay with K562 [1] came out at 10%; with K562 [2], 18%; in the assay on K562 [5] it was 72%; in assay [6], 46%. The IC50 in assay [4] was found to be 12000 nM; in the assay on K562 [7] (Homo sapiens, K562, 120 h), 200 nM. Further, the outcome with Vero was Active.
For `COc1ccc(/C=C/C(=O)c2cc(OC)c(OC)c(OC)c2)cc1F`, the results for the Activity in the assay on K562 [1], with K562 [2] and in the assay on K562 [5] were 9%, 19% and 72%, respectively. For the same compound, the IC50 came out at 1200 nM in [4] and 300 nM in the assay with K562 [7] (Homo sapiens, K562, 120 h).
As to `COc1cc(C(=O)/C=C/c2cc(F)c(OC)c(F)c2)cc(OC)c1OC`, the Activity in the assay with K562 [1] was determined as 20%; in the assay on K562 [2], 19%; in the assay with K562 [5], 61%. Also, the IC50 in [4] came out at 12000 nM; with K562 [7] (Homo sapiens, K562, 120 h), 6200 nM.
On to `COc1ccc(C(=O)/C=C/c2ccc(OC)c(OP(=O)([O-])[O-])c2)cc1.[Na+].[Na+]`, for which the values for the Activity with K562 [1], with K562 [2] and in the assay on K562 [5] were 22%, 14% and 64%, respectively. Also, the IC50 stood at 39000 nM in assay [4] and 8 nM with K562 [7] (k562).
For `COc1ccc(/C=C/C(=O)c2ccc(OC)c(OC)c2)c(OC)c1`, the Activity is 26% in the assay on K562 [1], 27% in the assay on K562 [2], 47% in the assay on K562 [5] and 42% in assay [6]. In addition, the IC50 came out at 18000 nM in [4] and 300 nM in the assay on K562 [7] (Homo sapiens, K562, 120 h). In addition, in the assay with Vero, the outcome was Active.
As for `COc1ccc(C(=O)/C=C/c2cc(F)c(OC)c(F)c2)c(OC)c1OC`, the values for the Activity in the assay with K562 [1], in the assay with K562 [2] and in the assay with K562 [5] were 51%, 3% and 46%, respectively. For the same compound, the IC50 in assay [4] came to 31000 nM; in the assay on K562 [7] (Homo sapiens, K562, 120 h), 4800 nM.
Regarding `COc1cc(OC)c(C(=O)/C=C/c2ccc(OC)c(OC)c2OC)c(OC)c1`, the Activity in the assay with K562 [1] worked out at 10%; in the assay with K562 [2], 16%; in the assay with K562 [5] it was 74%; in assay [6], 27%. For the same compound, the IC50 in assay [4] came out at 15000 nM; in the assay on K562 [7] (Homo sapiens, K562, 120 h) it was 300 nM.
Take `COc1ccc(/C=C/C(=O)c2ccc(OC)c(OC)c2OC)cc1O`: the Activity with K562 [1] is on record as 32%; in the assay on K562 [2] it was 28%; with K562 [5], 40%. The IC50 in [4] is 450 nM; in the assay with K562 [7] (Homo sapiens, K562, 120 h), 10 nM.
With `COc1cc(C(=O)/C(C)=C/c2cc(F)c(OC)c(F)c2)cc(OC)c1OC`, the Activity was 4% in the assay on K562 [1], 24% in the assay on K562 [2], 72% in the assay with K562 [5] and 25% in [6]. The IC50 was found to be 2400 nM in [4] and 50 nM in the assay on K562 [7] (Homo sapiens, K562, 120 h).
Turning to `CO/C(=C\c1ccc(OC)c(O)c1)C(=O)c1cc(OC)c(OC)c(OC)c1`, the Activity is 4% with K562 [1], 12% in the assay with K562 [2], 84% with K562 [5] and 5% in [6]. The result in the assay on HUVEC and in the assay on Vero was Active. The IC50 in [4] was found to be 510 nM; in the assay with K562 [7] (Homo sapiens, K562, 120 h) it was 1.5 nM.
Turning to `COc1ccc(/C=C(\C)C(=O)c2cc(OC)c(OC)c(OC)c2)cc1[N+](=O)[O-]`, the results for the Activity in the assay on K562 [1], in the assay with K562 [2] and in the assay on K562 [5] were 36%, 36% and 28%, respectively. Moreover, the IC50 was greater than 10000 nM in assay [4] and 60 nM in the assay on K562 [7] (Homo sapiens, K562, 120 h).
In the case of `CO/C(=C\c1ccc(OC)c(F)c1)C(=O)c1cc(OC)c(OC)c(OC)c1`, the Activity was found to be 41% with K562 [1], 13% with K562 [2], 46% with K562 [5] and 8% in [6]. Moreover, the outcome in the assay on HUVEC was Active. The IC50 in assay [4] came to 470 nM; in the assay on K562 [7] (Homo sapiens, K562, 120 h), 3.7 nM.
Take `COc1ccc(C(=O)/C(C)=C/c2ccc(OC)c(OP(=O)([O-])[O-])c2)cc1.[Na+].[Na+]`: the Activity worked out at 21% in the assay on K562 [1], 10% with K562 [2] and 69% in the assay with K562 [5]. Moreover, the values for the concentration for half-maximal inhibition (IC50) (in [4]; in the assay with K562 [7] (k562)) were 3100 nM and 0.12 nM, respectively.
For `COc1ccc(/C=C\c2cc(OC)c(OC)c(OC)c2)cc1O` [COMBRETASTATIN A4], the Activity in the assay on K562 [1] is 2%; in the assay on K562 [2] it was 8%; in the assay on K562 [5], 90%; in assay [6], 8%. For the same compound, in assay [4], the IC50 came out at 100 nM.
With `COc1ccc(/C=C/C(=O)c2ccc(OC)c(OC)c2OC)cc1F`, the Activity in the assay with K562 [1] is 37%; with K562 [2], 14%; with K562 [5] it was 49%. Also, the IC50 in assay [4] came out at 7900 nM; with K562 [7] (Homo sapiens, K562, 120 h), 350 nM.
`COc1ccc(/C=C\c2cc(OC)c(OC)c(OC)c2)cc1OP(=O)(O)O`: the result in the assay with HUVEC was Active.
Regarding `COc1ccc(/C=C/C(=O)c2cc(OC)c(OC)c(OC)c2)cc1O`, the Activity stood at 12% in the assay on K562 [1], 12% in the assay on K562 [2], 76% in the assay on K562 [5] and 9% in [6]. Besides, the result (in assay [8]; in the assay with HUVEC) was Active. This compound also displayed an IC50 in assay [4] of 620 nM.
Consider `COc1ccc(CC(C)C(=O)c2cc(OC)c(OC)c(OC)c2)cc1O` (stereo not given), for which the values for the Activity with K562 [1], in the assay on K562 [2] and in the assay on K562 [5] were 36%, 36% and 28%, respectively. For the same compound, the IC50 in [4] was 4000 nM; in the assay on K562 [7] (Homo sapiens, K562, 120 h), 30 nM.
Regarding `CN(Cc1cnc2nc(N)nc(N)c2n1)c1ccc(C(=O)N[C@@H](CCC(=O)O)C(=O)O)cc1`, the result with HUVEC was inactive.
As for `COc1ccc(/C=C/C(=O)c2cc(OC)c(OC)c(OC)c2)cc1N`, the values for the Activity in the assay on K562 [1], with K562 [2] and in the assay on K562 [5] were 48%, 33% and 19%, respectively. Further, the IC50 was found to be 2000 nM in [4] and 10 nM with K562 [7] (Homo sapiens, K562, 120 h).
On to `COc1ccc(/C=C(\C)C(=O)c2cc(OC)c(OC)c(OC)c2)cc1F`, for which the Activity in the assay on K562 [1] was determined as 3%; with K562 [2], 9%; in the assay with K562 [5], 88%; in [6], 6%. Also, the IC50 was found to be 650 nM in assay [4] and 2 nM in the assay on K562 [7] (Homo sapiens, K562, 120 h). Besides, in the assay on Vero, the result was Active.
As to `COc1ccc(C(=O)/C(C)=C/c2ccc(OC)c(OP(=O)(O)O)c2)cc1`, the outcome with HUVEC was Active. For the same compound, the Activity in assay [6] is 12%.
